Data: US20220387544A1, “NOVEL THERAPEUTIC USE” (Artios Pharma Limited, priority 2019, published 2022)
“Also recorded” adds a separate entry of the source.

Experiments:
Type in all cases: cell-based
[1] = system: SUM149 Parental and C20orf196 KO SUM149 cells; test: Clonogenic survival assay (ICR), SUM149 C20ORF196 KO clones
Method: (§1) Clonogenic survival assays were performed as previously described (Edwards et al Nature (2008) 451, 1111-1115; Farmer et al Nature (2005) 434, 917-921). For measurement of sensitivity to Compound A inhibitor, exponentially growing cells were seeded in six-well plates at a concentration of 1000-2000 cells per well. For Compound A, cells were continuously exposed to the drug with media and drug replaced every 72 h. After 14 days, cells were fixed and stained with sulphorhodamine-B (Sigma) and colonies were counted. SFs were calculated and drug sensitivity curves plotted as previously described (Farmer et al Nature (2005) 434, 917-921).
(§2) Parental or C20orf196 KO SUM149 cells were seeded into 6 well plates and incubated overnight. The cells were then exposed to a serial dilution of Polθ inhibitor or olaparib for 14 days, fixed, and stained with sulphorhodamine B. The colonies in each well were counted and normalised survival data plotted to generate a dose-response curve, as described before.

[2] = system: parental and SHLD2 KO HCC1395 cells; test: Colony formation assay, HCC1395; conditions: SHLD2 KO vs parental HCC1395 cells, colony solubilisation protocol
Method: (§3) 1 mL of cells were seeded per well in a 24-well plate in triplicate and incubated overnight at 37° C. Cells were treated with a seven-point dose response curve with a one-in-three serial dilution of compound for the timepoints listed in Table 5. For MDA-MB-436 cells media was replenished every five days.
(§4) Cells were fixed with 70% ethanol for 20 minutes at room temperature with shaking. Cells were then stained with 0.04% Crystal Violet (Sigma Aldrich) for 20 minutes at room temperature with shaking. Cells were washed 6 times with water and air-dried overnight.
(§5) Plates were imaged using a Gelcount (Oxford Optronix), and colonies were counted using parameters optimized for each cell line. […] Colonies were solubilized using 10% acetic acid (VWR) for 30 minutes, absorbance at 595 nm was read using the Clariostar plate reader (BMG Labtech), and blank correction was applied. Relative Survival was calculated by normalization of compound treated wells to DMSO treated wells.
(§6) The effect of a DNA polymerase theta (Pole) inhibitor (Compound A) and the PARP inhibitor olaparib on the survival of parental and SHLD2 deleted (SHLD2 KO) HCC1395 cells was investigated by colony formation assay. Briefly, each population was seeded at low density, incubated with different concentrations of the compound and the relative survival normalized to untreated cells was measured with the colony solubilisation protocol.

[3] = system: Parental and REV7 KO SUM149 cells; test: Clonogenic survival assay (ICR), SUM149 REV7 KO clones; conditions: REV7 KO clones vs parental SUM149, 14 days
Method: as §1
as §2, with “REV7” for “C20orf196”, “treated with” for “exposed to”, “curve.” for “curve, as described before.”

[4] = system: parental and REV7 KO 22Rv1 cells; test: Colony formation assay, 22Rv1; conditions: REV7 KO vs REV7 wild type parental 22Rv1 cells, 2 weeks
Method: as §3, §4
Plates were imaged using a Gelcount (Oxford Optronix), and colonies were counted using parameters optimized for each cell line. 22Rv1 viability curves were generated from the colony counts alone. MDA-MB-436 and […] viability curves were generated from solubilized colonies. Colonies were solubilized using 10% acetic acid (VWR) for 30 minutes, absorbance at 595 nm was read using the Clariostar plate reader (BMG Labtech), and blank correction was applied. Relative Survival was calculated by normalization of compound treated wells to DMSO treated wells.
The effect of a DNA polymerase theta (Polθ) inhibitor (Compound A) or the PARP inhibitor olaparib on the survival of parental (REV7 wild type) or REV7 deleted (REV7 KO) 22Rv1 cells was investigated in colony formation assays (CFA—see protocol above). […]

[5] = system: parental and REV7 KO SUM149 tumouroids; test: Tumouroid assay, parental vs REV7 KO SUM149; conditions: fourteen days treatment
Method: (§7) Cells were seeded into a hydrogel containing 10% rat tail collagen (OcellO) in 384-well high content imaging microplates at varying densities to compensate for differential growth characteristics (Table 2).
(§8) 24 hours after seeding, test compounds and olaparib (Selleckchem) were added in an eight-point dose range with a one in three serial dilution (maximum concentration 12 μM for all compounds, except 30 μM compound A for REV7 KO cell experiments). Dimethyl sulfoxide (DMSO) and 1 μM staurosporine (Med Chem Express) treatments were included as negative and positive controls, respectively. All treatments were carried out in quadruplicate.
After seven or fourteen days of treatment for 20orf196 KO and REV7 KO experiments respectively, cells were fixed with 5× Fix & Stain solution (OcellO) for 16 hours at 4° C. to stain both the nuclei using Hoechst 33258 and the actin cytoskeleton using Rhodamine-Phalloidin. Cells were washed four times with phosphate-buffered saline (PBS), and plates were imaged and analysed using OcellO's three-dimensional image analysis software (Ominer). […]
Parental or REV7 KO SUM149 cells were seeded into a collagen-containing hydrogel in 384-well plates and incubated overnight. […] Plates were imaged, and the fraction of nuclei without an associated actin cytoskeleton was calculated using OcellO's three-dimensional image analysis software.

[6] = system: parental and SHLD2 KO MDA-MB-436 cells; test: Colony formation assay, MDA-MB-436; conditions: SHLD2 KO vs parental MDA-MB-436 cells, colony solubilization protocol
Method: as §3, §4, §5
as §6, with “(Polθ)” for “(Pole)”, “MDA-MB-436” for “HCC1395”, “solubilization” for “solubilisation”

[7] = system: Shieldin-defective, PARPi-resistant SUM149 cells; test: Re-sensitisation to olaparib; conditions: deletion of C20orf196 or 53BP1 or expression of BRCA1 in SUM149; olaparib 1 μM 10 days
Method: For measurement of re-sensitisation to Olaparib, exponentially growing cells were exposed to Compound A for 48 hours. After, cells were seeded in 96-well plates at a concentration of 1000-2000 cells per well. 24 hours post-seeding, Olaparib treatment was initiated and cells were continuously exposed to the drug with media and drug replenished every 72 hours. After 10 days, cell viability was estimated using Cell-Titre Glo (Promega). SFs were calculated and drug sensitivity curves plotted as previously described (Farmer et al Nature (2005) 434, 917-921).
Briefly, parental SUM149 cells or derivatives with either BRCA1 restored or with genetic deletion of either C20orf196 or 53BP1 were treated with Compound A in a tissue culture flask for 48 hours. The cells were then washed before seeding at low density in 96 well plates. 24 hours post seeding, cells were incubated with either olaparib or DMSO for a further 10 days. The relative survival normalised to untreated cells was measured using Cell-Titre Glo.

[8] = system: parental and C20orf196 KO SUM149 tumouroids; test: Tumouroid assay, parental vs C20orf196 KO SUM149
Method: as §7, §8
After seven or fourteen days of treatment for 20orf196 KO and REV7 KO experiments respectively, cells were fixed with 5× Fix & Stain solution (OcellO) for 16 hours at 4° C. to stain both the nuclei using Hoechst 33258 and the actin cytoskeleton using Rhodamine-Phalloidin. Cells were washed four times with phosphate-buffered saline (PBS), and plates were imaged and analysed using OcellO's three-dimensional image analysis software (Ominer). For each well, two channels of 16-bit image stacks were collected using an automated microscope system: Molecular Devices ImageXpress Micro XLS, equipped with a 4× magnification/0.2NA PlanApo objective. For each image slice (n=47), pixel size was 0.324 μm and step size in z-direction was 50 μm.
Parental or C20orf196 KO SUM149 cells were seeded into a collagen-containing hydrogel in 384-well plates and incubated overnight. The resulting tumouroids were treated with a serial dilution of Polθ inhibitor or olaparib for seven days, fixed, and stained to visualise DNA and F-actin. Plates were imaged, and tumouroid size was measured using OcellO's three-dimensional image analysis software.
(§9) Parental or C20orf196 KO SUM149 cells were seeded into a collagen-containing hydrogel in 384-well plates and incubated overnight. The resulting tumouroids were treated with a serial dilution of Polθ inhibitor or olaparib for seven days, fixed, and stained to visualise DNA and F-actin. Plates were imaged, and the number of nuclei per tumouroid was counted using OcellO's three-dimensional image analysis software.
as §9, with “with” for “with a serial dilution of”, “inhibitor, olaparib” for “inhibitor”, “control compound (at the concentrations indicated)” for “olaparib”, “fraction” for “number”, “without an associated actin cytoskeleton” for “per tumouroid”, “calculated” for “counted”

DLD1 colon cancer cells = test: CRISPR-Cas9 KO synthetic lethality screen; conditions: compound at approximate EC20, 15 days, vs DMSO
Method: The CRISPR KO screen, sample preparation and data analysis were performed by Horizon Discovery using a CRISPR library against 1965 genes with 10 gRNA's per gene. DLD-1 colon cancer cells were grown in RPMI medium with 10% FBS, infected with the lentiviral library (each viral particle containing Cas9 and sgRNA), selected with puromycin for 2 weeks, and treated with compound B (EC17.1%) or DMSO for 15 days. Synthetic lethality scores were calculated by normalizing the sgRNA count from compound treated cells to DMSO treated control.
The synthetic lethal effect between Polθ inhibitor (Compound B) and knockout of any one of 1965 genes in DLD1 colon cancer cell line was assessed. A CRISPR KO screen was performed in DLD1 cells using compound B at an approximate EC20, using DMSO-exposed cells (the compound vehicle) as control. The quantity of cells containing each sgRNA was measured via next generation sequencing. (FIG. 5(a)) REV7 was in the Top 50 hits out of the […] genes screened, based on FDR score together with comparison to a validated synthetic lethal partner BRCA2. (b) Based on the log fold change, REV7 was in the top 25 hits. […] 7 out of 10 gRNA's were synthetic lethal with Polθ inhibition.

[9] = C20orf196 KO vs parental SUM149 tumouroids, seven days treatment
[10] = in C20orf196 KO cells when compared with olaparib

SMILES | sensitivity by reduction in number of colonies ([1]; C20orf196 KO clones vs parental SUM149, 14 days) | sensitivity of parental SUM149 cells ([1]; parental SUM149 (BRCA1 mutation), 14 days) | sensitivity by relative survival [2] | sensitivity by reduction in number of colonies [3] | sensitivity by relative survival (colonies) [4] | cell death (fraction of dead cells) [5] | sensitivity by relative survival [6] | resistance to olaparib [7] | cell death (fraction of dead cells) ([8]; C20orf196 KO vs parental SUM149 tumouroid cultures, seven days treatment) | sensitivity by reduction in number of nuclei per tumouroid [8, 9] | sensitivity by reduction in tumouroid size [8, 9] | cell death [8, 10] | reduction in the number of nuclei per tumoroid [8, 10] | reduction in tumoroid size [8, 10] | REV7 gRNA's synthetic lethal with Polθ inhibition, out of 10 (DLD1 colon cancer cells) | position of REV7 among hits based on log fold change (DLD1 colon cancer cells)
O=C(c1cc(Cc2n[nH]c(=O)c3ccccc23)ccc1F)N1CCN(C(=O)C2CC2)CC1 [olaparib, reference compound] | more resistant | hypersensitive | significantly more resistant | resistance; also recorded: more resistant | still retain resistance | less cell death | trend for increased resistance | induces resistance; also recorded: marked resistance | significantly less cell death | less sensitive | less sensitive | – | – | – | – | –
Cc1cccc(N(C)C(=O)[C@@H]2C[C@H](O)CN2c2nc(C)cc(C(F)(F)F)c2C#N)c1 [Compound B, (2S,4S)-1-(3-cyano-6-methyl-4-(trifluoromethyl)pyridin-2-yl)-4-hydroxy-N-methyl-N-(m-tolyl)pyrrolidine-2-carboxamide] | – | – | – | – | – | – | – | – | – | – | – | significantly more cell death | greater reduction in the number of nuclei per tumoroid | greater reduction in tumoroid size | 7 | ≤ 25
